Results from patent US10376557B2, “Peptide fragments for inducing synthesis of extracellular matrix proteins” (HELIX BIOMEDIX, INC., priority 2006, dated 2019).
Ends that are not written are not given here.

Test system: Human dermal fibroblasts
Test: SIRCOL collagen assay: soluble collagen released by dermal fibroblasts incubated with peptides
Type: cell-based
Details: for Released collagen (μg/mL) 24 h / Released collagen (μg/mL) 48 h: peptide 50 μg/mL (per Table 5); for Collagen / Collagen (μg): * = may not be significant, detection limit 2.5 μg; for Collagen produced (μg/mL) 24 hrs / Collagen produced (μg/mL) 48 hrs: [Peptide] 50 μg/mL
Method: Several sequences identified in Examples 1 and 2 were synthesized using standard peptide chemistry and assayed for the stimulation of collagen from dermal fibroblasts. The synthesized peptides were amidated at the C-terminus, which rendered the tetrapeptides less susceptible to protease degradation and increased their solubility compared to the free acid forms. Human dermal fibroblasts were incubated in 96-well plates at 37° C. and 5% CO2 for 24 and 48 hours in 150 μL complete cell culture media (Cascade Biologics, Portland, Oreg.; Cat. No. M-106-500), supplemented with Low Serum Growth Supplement (Cascade Biologics, Portland, Oreg.; Cat. No. […] Each well was seeded with 10,000 cells. Following the incubation, 100-μL medium samples were recovered from each well and assayed for collagen production
The assays were performed by Tebu-bio Laboratories (France) using the SIRCOL™ Collagen Assay Kit (Biocolor Assays, UK) following the manufacturer's protocol. The SIRCOL™ Collagen Assay is a quantitative dye-binding method designed for the analysis of soluble collagens released into culture medium by mammalian cells during in vitro culture. The collagen of the tested samples binds to the anionic SIRCOL™ dye. The collagen-dye complexes precipitate out of solution and are pelleted by centrifugation. The recovered collagen-dye pellet was dissolved in an alkaline solution prior to absorbance measurements. Duplicate measurements were taken at the 24 and 48 hour times from two separate samples. The four measurements for each sample were averaged. The absorbance of reagent blanks, collagen standards, and samples were measured at 560 nm. The reagent blank absorbance was subtracted from the absorbance from each sample at 24 and 48 hours.
Two separate data sets were used to generate two collagen standard calibration curves. The first calibration curve was generated for purposes of calculating the quantity of collagen in samples H6 (combination of SEQ ID NOs:1-4), […] (SEQ ID NOs:1-8, respectively) and H15 (combination of SEQ ID NOs:5-8). The second calibration curve was generated for calculating the quantity of collagen in samples H16 (SEQ ID NO:9), H21-23 (SEQ ID NOs:10-12, respectively), H25-26 (SEQ ID NOs:13-14, respectively), or H29-30 (SEQ ID NOs:15-16, respectively), H32 (SEQ ID NO:17), H33 (combination of SEQ ID NOs:9-12), H34 (combination of SEQ ID NOs:11-14), H35 (combination of SEQ ID NOs:13-16), H36 (combination of SEQ ID NOs:1, 6, 5, 8), H37 (SEQ ID NO: 17) and H38 (SEQ ID NO:8) from the absorbance measurements was created by plotting the Abs560nm of the known collagen standards versus the respective concentrations of the collagen standards (in micrograms) each time a series of assays were performed. With respect to each data set, the same calibration curve was used for samples taken at the 24 and 48 hour times (Tables 2A and 2B). Accordingly, different standard curves were prepared immediately prior to performing each series of assays.
A linear regression was performed from plotting the Abs560nm values versus concentrations of the respective collagen standards using MICROSOFT EXCEL™. […] As the results were identical, only the 24-hour time period was used for the second series calibration curves. The formula of the line obtained on assay date 1 and assay date 2 of the second series of samples was y=0.0178x and y=0.0162x, respectively. The peptide LL-37 (SEQ ID NO:18) was used as a positive control as it has been widely reported to have an impact upon wound healing in man (Heilborn et al., The Cathelicidin Anti-Microbial Peptide LL-37 Is Involved In The Re-Epithelialization Of Human Skin Wounds And Is Lacking In Chronic Ulcer Epithelium, J. Invest. Dermato. 120:379-89 (2003). The assay detection limit defined by the manufacturer is 2.5 μg. […]

[1] = 24 hours, peptide 50 μg/mL, second series
[2] = 48 hours, peptide 50 μg/mL, second series
[3] = check mark = yes, peptide 50 μg/mL
[4] = 24 hours, peptide 50 μg/mL, 100 μL medium sample
[5] = 48 hours, peptide 50 μg/mL, 100 μL medium sample

Row | Substance | Released collagen (μg/mL) 24 h [µg/mL] | Average (A560 nm) [1] | Average minus blank (A560 nm) [1] | Collagen produced (μg/mL) 24 hrs [µg/mL] | Released collagen (μg/mL) 48 h [µg/mL] | Average (A560 nm) [2] | Average minus blank (A560 nm) [2] | Collagen produced (μg/mL) 48 hrs [µg/mL] | Collagen (μg) [2] | Decrease in collagen release at 48 h v. 24 h [3] | Average (A560 nm) (24 hours, peptide 50 μg/mL) | Average minus blank (A560 nm) (24 hours, peptide 50 μg/mL) | Average (A560 nm) (48 hours, peptide 50 μg/mL) | Average minus blank (A560 nm) (48 hours, peptide 50 μg/mL) | Collagen (μg) [1] | Increase in collagen release at 48 h v. 24 h [3] | further results
1 | PKGP (PKGP-NH2) [H21] | 25 | 0.12 | 0.04 | 25 | 29 | 0.11 | 0.05 | 29 | – | – | – | – | – | – | – | – | Collagen [1]: 2.5 µg; Collagen [2]: 2.9 µg; Significant release of collagen at 24 h and 48 h (check mark = yes, 25 μg/mL considered significant, peptide 50 μg/mL): ✓
2 | PEKP (PEKP-NH2) [H16] | 31 | 0.14 | 0.06 | 31 | 3 | 0.06 | 0.00 | 3 | 0.3* μg | ✓ | – | – | – | – | – | – | Collagen [1]: 3.1 µg
3 | GPPG (Synthetic Peptide H13) | 18 | – | – | 18 | 2 | – | – | 2 | – | – | 0.10 | 0.02 | 0.12 | 0.00 | – | – | Collagen (μg) [4]: 1.8* μg; Collagen (μg) [5]: 0.2* μg
4 | PMGP (PMGP-NH2) [H25] | 13 | 0.10 | 0.02 | 13 | 7 | 0.07 | 0.01 | 7 | 0.7* μg | ✓ | – | – | – | – | 1.3* μg | – | –
5 | PQGP (PQGP-NH2) [H29] | 4 | 0.09 | 0.01 | 4 | 19 | 0.09 | 0.03 | 19 | 1.9* μg | – | – | – | – | – | 0.4* μg | ✓ | –
6 | PGNP (PGNP-NH2) [H30] | 9 | 0.10 | 0.02 | 9 | 20 | 0.09 | 0.03 | 20 | 2.0* μg | – | – | – | – | – | 0.9* μg | ✓ | –
7 | PGQP (PGQP-NH2) [H22] | 33 | 0.14 | 0.06 | 33 | 21 | 0.09 | 0.03 | 21 | 2.1* μg | ✓ | – | – | – | – | – | – | Collagen [1]: 3.3 µg
8 | PGTP (PGTP-NH2) [H23] | 1 | 0.08 | 0.00 | 1 | 17 | 0.09 | 0.03 | 17 | 1.7* μg | – | – | – | – | – | 0.1* μg | ✓ | –
9 | GAGP (Synthetic Peptide H12) | 2 | – | – | 2 | 37 | – | – | 37 | – | – | 0.08 | 0.00 | 0.17 | 0.05 | – | ✓ | Collagen (μg) [4]: 0.2* μg; collagen production at 48 hours (in words) (48 hours): good results; Collagen [5]: 3.7 µg
10 | PGPR (Synthetic Peptide H10) | 34 | – | – | 34 | 0 | – | – | 0 | – | ✓ | 0.12 | 0.04 | 0.11 | 0.00 | – | – | Collagen [4]: 3.4 µg; Collagen (μg) [5]: 0.0* μg
11 | GSPG (Synthetic Peptide H9) | 35 | – | – | 35 | 0 | – | – | 0 | – | ✓ | 0.13 | 0.05 | 0.09 | 0.00 | – | – | Collagen [4]: 3.5 µg; Collagen (μg) [5]: 0.0* μg
12 | PEGP (PEGP-NH2) [H7] | 0 | – | – | 0 | 54 | – | – | 54 | – | – | 0.08 | 0.00 | 0.19 | 0.07 | – | ✓ | Collagen (μg) [4]: 0.0* μg; Collagen [5]: 5.4 µg
